Measurements: patent publication US20120015907A1, “Furopyridine compounds and uses thereof” (NOVARTIS AG, priority 2010, published 2012)
pIC50: −log10 of the molar value.

Biological target: T1, HCV polymerase (Hepatitis C virus genotype 1b, UniProt Q9WMX2)
T1 construct: (His)6 (C)
Assay: biochemical
Conditions: polymerase assay of Biological Example 1; read-out: NS5B polymerase IC50

| SMILES | pIC50 |
| --- | --- |
| CNC(=O)c1c(-c2ccc(F)cc2)oc2nc(N(C)S(C)(=O)=O)c(CCCS(C)(=O)=O)cc12 [Example 4.94, 2-(4-fluorophenyl)-N-methyl-6-(N-methylmethylsulfonamido)-5-(3-(methylsulfonyl)propyl)furo[2,3-b]pyridine-3-carboxamide] | 6.68 |
| CNC(=O)c1c(-c2ccc(F)cc2)oc2nc(N(CCCC(C)O)S(C)(=O)=O)c(I)cc12 (stereo not drawn) [Example 18.998, 2-(4-fluorophenyl)-6-(N-(4-hydroxypentyl)methylsulfonamido)-5-iodo-N-methylfuro[2,3-b]pyridine-3-carboxamide] | 7.41 |
| CNC(=O)c1c(-c2ccc(C)cc2)oc2nc(N(CCCCCCCCCC(=O)O)S(C)(=O)=O)c(C3CC3)cc12 [Example 29.993, 10-(N-(5-cyclopropyl-3-(methylcarbamoyl)-2-p-tolylfuro[2,3-b]pyridin-6-yl)methylsulfonamido) decanoic acid] | 8.70 |
| CNC(=O)c1c(-c2ccc(F)cc2)oc2nc(N(CCC(O)CO)S(C)(=O)=O)c(I)cc12 (stereo not drawn) [Example 18.94, 6-(N-(3,4-dihyroxybutyl)methylsulfonamido)-2-(4-fluorophenyl)-5-iodo-N-methylfuro[2,3-b]pyridine-3-carboxamide] | 6.61 |
| CCc1cc2c(C(=O)NC)c(-c3ccc(F)cc3)oc2nc1N(CCOc1cccc(C(=O)OC)c1)S(C)(=O)=O [Example 22.6, methyl 3-(2-(N-(5-ethyl-2-(4-fluorophenyl)-3-(methylcarbamoyl)furo[2,3-b]pyridin-6-yl)methylsulfonamido)ethoxy)benzoate] | 6.60 |
| CNC(=O)c1c(-c2ccc(F)cc2)oc2nc(N(C)S(C)(=O)=O)c(CCCC(C)O)cc12 (stereo not drawn) [Example 4.93, 2-(4-fluorophenyl)-5-(4-hydroxypentyl)-N-methyl-6-(N-methylmethylsulfonamido)furo[2,3-b]pyridine-3-carboxamide] | 6.67 |
| CCc1cc2c(C(=O)NC)c(-c3ccc(F)cc3)oc2nc1N(CCOc1ccccc1OC)S(C)(=O)=O [Example 21.91, 5-ethyl-2-(4-fluorophenyl)-6-(N-(2-(2-methoxyphenoxy)ethyl)methylsulfonamido)-N-methylfuro[2,3-b]pyridine-3-carboxamide] | 6.24 |
| CCc1cc2c(C(=O)NC)c(-c3ccc(F)cc3)oc2nc1N(CCc1scnc1C)S(C)(=O)=O [Example 22, 5-ethyl-2-(4-fluorophenyl)-N-methyl-6-(N-(2-(4-methylthiazol-5-yl)ethyl)methylsulfonamido)furo[2,3-b]pyridine-3-carboxamide] | 6.77 |
| CNC(=O)c1c(-c2ccc(F)cc2)oc2nc3c(cc12)CCCCN3S(C)(=O)=O [Example 39, 2-(4-Fluoro-phenyl)-9-methanesulfonyl-6,7,8,9-tetrahydro-5H-1-oxa-9,10-diaza-cyclohepta[f]indene-3-carboxylic acid methylamide] | 6.79 |
| CNC(=O)c1c(-c2ccc(C)cc2C)oc2nc(N(C)S(C)(=O)=O)c(C3CC3)cc12 [Example 2.99, 5-cyclopropyl-2-(2,4-dimethylphenyl)-N-methyl-6-(N-methylmethylsulfonamido)furo[2,3-b]pyridine-3-carboxamide] | 7.15 |
| CNC(=O)c1c(-c2ccc(C)cc2)oc2nc(N(CCCCC(=O)NCCCC(=O)O)S(C)(=O)=O)c(C3CC3)cc12 [Example 29.99999, 4-(5-(N-(5-cyclopropyl-3-(methylcarbamoyl)-2-p-tolylfuro[2,3-b]pyridin-6-yl)methylsulfonamido)pentanamido)butanoic acid] | 7.68 |
| CNC(=O)c1c(-c2ccc(C)cc2)oc2nc(N(CCCC(CC#N)C(=O)OC)S(C)(=O)=O)c(C3CC3)cc12 (stereo not drawn) [Example 29.9998, methyl 2-(cyanomethyl)-5-(N-(5-cyclopropyl-3-(metfiylcarbamoyl)-2-p-tolylfuro[2,3-b]pyridin-6-yl)methylsulfonamido) pentanoate] | 8.30 |
| CNC(=O)c1c(-c2ccc(F)cc2)oc2nc(N(CCN(C)S(C)(=O)=O)S(C)(=O)=O)c(I)cc12 [Example 23.996, 2-(4-fluorophenyl)-5-iodo-N-methyl-6-(N-(2-(N-methylmethylsulfonamido)ethyl)methylsulfonamido) furo[2,3-b]pyridine-3-carboxamide] | 6.62 |
| CNC(=O)c1c(-c2ccc(C)cc2)oc2nc(N(CCC[C@H](C)C(=O)N[C@@H](CO)Cc3ccccc3)S(C)(=O)=O)c(C3CC3)cc12 [Example 47.2] | 7.24 |
| CNC(=O)c1c(-c2ccc(C)cc2)oc2nc(N(CCCBr)S(C)(=O)=O)c(C3CC3)cc12 [Example 29.999, 6-(N-(3-bromopropyl)methylsulfonamido)-5-cyclopropyl-N-methyl-2-p-tolylfuro[2,3-b]pyridine-3-carboxamide] | 8.40 |
| CNC(=O)c1c(-c2ccc(C)cc2)oc2nc(N(CCCC3CCCC3C(=O)O)S(C)(=O)=O)c(I)cc12 (stereo not drawn) [Example 18.9991, 2-(3-(N-(5-iodo-3-(methylcarbamoyl)-2-p-tolylfuro[2,3-b]pyridin-6-yl)methylsulfonamido)propyl)cyclopentanecarboxylic acid] | 8.30 |
| CNC(=O)c1c(-c2ccc(C)cc2)oc2nc(N(CCC[C@H](COC)C(=O)N3C(=O)OC[C@@H]3Cc3ccccc3)S(C)(=O)=O)c(I)cc12 [Example 47.71] | 7.59 |
| CNC(=O)c1c(-c2ccc(C)cc2C)oc2nc(N(CCCCC(=O)O)S(C)(=O)=O)c(C3CC3)cc12 [Example 29.99996, 5-(N-(5-cyclopropyl-2-(2,4-dimethylphenyl)-3-(methylcarbamoyl)furo[2,3-b]pyridin-6-yl)methylsulfonamido) pentanoic acid] | 7.43 |
| C=CCCN(c1nc2oc(-c3ccc(C)cc3)c(C(=O)NC)c2cc1C1CC1)S(C)(=O)=O [Example 29.98, 6-(N-(but-3-enyl)methylsulfonamido)-5-cyclopropyl-N-methyl-2-p-tolylfuro[2,3-b]pyridine-3-carboxamide] | 7.77 |
| CNC(=O)c1c(-c2ccc(C)cc2)oc2nc(N(CCC[C@H](C)C(=O)OCOP(=O)(O)O)S(C)(=O)=O)c(C3CC3)cc12 [Example 49, (S)-(phosphonooxy)methyl 5-(N-(5-cyclopropyl-3-(methylcarbamoyl)-2-(p-tolyl)furo[2,3-b]pyridin-6-yl)methylsulfonamido)-2-methylpentanoate] | 8.70 |
| CNC(=O)c1c(-c2ccc(C)cc2)oc2nc(N(CCCC3(C(=O)O)CCN(C)CC3)S(C)(=O)=O)c(C3CC3)cc12 [Example 29.99993, 4-(3-(N-(5-cyclopropyl-3-(methylcarbamoyl)-2-p-tolylfuro[2,3-b]pyridin-6-yl)methylsulfonamido)propyl)-1-methylpiperidine-4-carboxylic acid] | 8.52 |
| C=C(C)c1cc2c(C(=O)NC)c(-c3ccc(F)cc3)oc2nc1N(C)S(C)(=O)=O [Example 2.4, 2-(4-fluorophenyl)-N-methyl-6-(N-methylmethylsulfonamido)-5-(prop-1-en-2-yl)furo[2,3-b]pyridine-3-carboxamide] | 6.88 |
| CCc1cc2c(C(=O)NC)c(-c3ccc(F)cc3)oc2nc1N(CCN1CCN(C(=O)OC(C)(C)C)CC1)S(C)(=O)=O [Example 21.998, tert-butyl 4-(2-(N-(5-ethyl-2-(4-fluorophenyl)-3-(methylcarbamoyl)furo[2,3-b]pyridin-6-yl)methylsulfonamido)ethyl)piperazine-1-carboxylate] | 6.37 |
| CNC(=O)c1c(-c2ccc(F)cc2)oc2nc(N(CCC3CCS(=O)(=O)C3)S(C)(=O)=O)c(C3CC3)cc12 (stereo not drawn) [Example 25.91, 5-Cyclopropyl-6-{[2-(1,1-dioxo-tetrahydro-thiophen-3-yl)-ethyl]-methanesulfonyl-amino}-2-(4-fluoro-phenyl)-furo[2,3-b]pyridine-3-carboxylic acid methylamide] | 8.52 |
| CCc1cc2c(C(=O)NC)c(-c3ccc(F)cc3)oc2nc1N(CCCNS(C)(=O)=O)S(C)(=O)=O [Example 23.4, 5-ethyl-2-(4-fluorophenyl)-N-methyl-6-(N-(3-(methylsulfonamido)propyl)methylsulfonamido)furo[2,3-b]pyridine-3-carboxamide] | 6.90 |

Test system: HCV replicon I389luc-ubi-neo/NS3-3'/ET in ET (Huh-lucubineo-ET) cells
Assay: Replicon assay (Biological Example 2), luciferase read-out
Format: cell-based
Conditions: Hepatitis C virus, luciferase activity 48 hours after compound addition
Procedure: A cell line, ET (Huh-lucubineo-ET) is used for screening of compounds for inhibiting HCV RNA dependent RNA polymerase. The ET cell line is stably transfected with RNA transcripts harboring a I389luc-ubi-neo/NS3-3′/ET; replicon with firefly luciferase-ubiquitin-neomycin phosphotransferase fusion protein and EMCV-IRES driven NS3-5B polyprotein containing the cell culture adaptive mutations (E1202G; […]; K1846T) (Krieger at al, 2001 and unpublished). The ET cells are grown in DMEM (Dulbeco's Modified Eagle's Medium), supplemented with 10% fetal calf serum, 2 mM Glutamine, Penicillin (100 IU/mL)/Streptomycin (100 μg/mL), 1× nonessential amino acids, and 250 μg/mL G418 (“Geneticin”). Reagents are all available through Life Technologies (Bethesda, Md.). The cells are plated at 0.5-1.0×10^4 cells/well in the 96 well plates and incubated for 24 hrs before adding test compound. The compounds are added to the cells to achieve a final concentration of 0.1 nM to 50 μM and a final DMSO (dimethylsulfoxide) concentration of 0.5%. Luciferase activity is measured 48 hours later by adding a lysis buffer and the substrate (Catalog number Glo-lysis buffer E2661 and Bright-Glo luciferase system E2620 Promega, Madison, Wis.). Cells should not be too confluent during the assay. Percent inhibition of replication data is plotted relative to no compound control. To determine the EC50 (effective concentration at which 50% of the maximum inhibition is observed), a 10 point, 3-fold serial dilution for each compound is used, which spans a concentration range of 1000 fold. EC50 values were calculated by fitting % inhibition at each concentration to the following equation:
% inhibition=100%/[(EC50/[I])^b+1]
where b is Hill's coefficient.

| SMILES | pIC50 |
| --- | --- |
| CNC(=O)c1c(-c2ccc(F)cc2)oc2nc(N(C)S(C)(=O)=O)c(CCCCCNC(=O)OC(C)(C)C)cc12 [Example 14.1, tert-butyl 5-(2-(4-fluorophenyl)-3-(methylcarbamoyl)-6-(N-methylmethylsulfonamido)furo[2,3-b]pyridin-5-yl)pentylcarbamate] | ≥ 7.00 |
| CNC(=O)c1c(-c2ccc(F)cc2)oc2nc(N(CCCC3CCCS3(=O)=O)S(C)(=O)=O)c(C3CC3)cc12 (stereo not drawn) [Example 24.6, 5-Cyclopropyl-6-{[3-(1,1-dioxo-tetrahydrothiophen-2-yl)-propyl]-methanesulfonyl-amino}-2-(4-fluoro-phenyl)-furo[2,3-b]pyridine-3-carboxylic acid methylamide] | ≥ 7.00 |
